In article PMC10547238, “Discovery of Potent Tetrazole Free Fatty Acid Receptor 2 Antagonists” (Journal of Medicinal Chemistry, 2023):
Values after ≈ are worked out from the molar mass of the structure shown. Values joined by “and” are separate entries in the source; they are usually repeats but may differ in a detail not shown here. Identical values can stand only once.

Key:
[1] = Kinetic aqueous solubility; assay type: physicochemical; conditions: phosphate buffer; kinetic solubility in PBS at pH 7.4 and 25 °C
Procedure: Twenty microliters of a 10 mM compound stock solution in DMSO was added to an Eppendorf tube containing 980 μL of phosphate buffer (10 mM, pH = 7.4). The samples were incubated in an Eppendorf Thermomixer (25 °C, 800 rpm) for 24 h. Afterward, the samples were centrifuged for 5 min at 11,000 rpm and the supernatant was filtered (0.2 μm PTFE membrane) before analysis by HPLC. Each compound was analyzed in duplicate. The solubility was calculated from the peak area relative to the reference samples (200 μM in MeOH/MilliQ H2O, 60/40, v/v).

Microsomal stability = assay type: in vitro ADME, mouse
Procedure: The assay was performed in duplicates essentially as described previously,[58] using male CD1 mouse liver microsomes (Thermo Fischer Scientific, 20 mg/mL), NADPH-regenerating agent Solution A and Solution B (Promega), potassium phosphate buffer (100 mM, pH 7.4), and test compounds (1 mM, diluted from 10 mM DMSO stock in the buffer). The samples were analyzed in an Agilent 6130 Mass Spectrometer instrument using electron spray ionization (ESI) coupled to an Agilent 1200 HPLC system (ESI-LCMS) with a C18 reverse phase column (Zorbax Eclipse XBD-C18, 4.6 mm × 50 mm) using a linear gradient of the binary solvent system of 100% mobile phase A (water:MeCN:formic acid, 95:5:0.1 v/v%) to 100% mobile phase B (MeCN:formic acid, 100:0.1 v/v %) in 6 min, with a flow rate of 1 mL/min.
To a pre-warmed solution of potassium phosphate buffer (135.6 μL) in an Eppendorf tube at 37 °C were added Solution A (7.5 μL), Solution B (1.5 μL), microsomes (3.9 μL), and the test compound (1 mM, 1.5 μL, final concentration = 10 μM). The tube was briefly vortexed and incubated at 37 °C in a thermomixer. At 0, 15, 30, 45, and 60 min, 25 μL of each sample was transferred to an ice-cold solution containing an internal standard (5 μM in MeCN, 12.5 μL). The sample was briefly vortexed and centrifuged for 5 min at 10.000g. The supernatant (25 μL) was transferred to HPLC vial and analyzed by ESI-LCMS in single ion mode. The data was analyzed using GraphPad Prism (version 9).

[2] = Chemical stability in PBS7.4; assay type: physicochemical
Procedure: Duplicates of 1 mL of a 50 μM solution were prepared by adding the 10 mM stock solution to a 1.5 mL Eppendorf tube and diluting it with PBS7.4. The Eppendorf tubes were incubated at 37 °C with gentle shaking (650 rpm) using an Eppendorf Thermomixer. The samples were briefly vortexed, and 50 μL aliquots were withdrawn at the time points 0, 12, 48, etc.; added to 250 μL vials; and analyzed immediately by HPLC. The chemical stability in PBS7.4 was determined at every time point in percentage relative to the 0 h time point.

[3] = Lipophilicity (logD7.4), octanol/PBS7.4 shake flask; assay type: physicochemical; conditions: 1-octanol/PBS7.4, pH 7.4; mean of two independent experiments
Procedure: The assay was performed in duplicates essentially as previously described.[58] A glass vial with a screw cap (8 mL) was charged with the test compound (40 μL, 10 mM in DMSO), PBS7.4 (0.01 M, 1980 μL), and 1-octanol (1980 μL). The vial was capped and sealed with a Parafilm and shaken at 700 rpm using an IKA KS 125 basic shaker for 24 h at 25 °C. The Parafilm was removed, and the sample was allowed to equilibrate for 1 h before analysis. One hundred microliters of the octanol phase was withdrawn and diluted 1:10 with MeOH (+0.1% TFA)/MilliQ water (4:1, v/v) and analyzed by HPLC. The interface was removed, and the PBS7.4 phase analyzed directly by HPLC. All analysis was performed in duplicates, and log D7.4 values were calculated from the peak areas (mAU·min) and adjusted for difference in injection volume and concentration-absorption effects from the solvents, using two calibration points per compound per solvent, and dilution of the octanol phase.

human FFA2-eYFP = molecular target: T1, human FFA2-eYFP (Homo sapiens, UniProt O15552); experiment: [35S]GTPγS incorporation assay, membranes of Flp-In T-Rex 293 cells; assay type: biochemical; conditions: for GTPγS pIC50: hFFA2, propionate at EC80, mean ± SEM, three or more experiments; for LLEGTPγS: pIC50, GTPγS – ClogP
T1 construct: expressed in transfected cells; host or cells: membranes of Flp-In T-Rex 293 cells induced to express the construct
T1 sequence (O15552 1-330): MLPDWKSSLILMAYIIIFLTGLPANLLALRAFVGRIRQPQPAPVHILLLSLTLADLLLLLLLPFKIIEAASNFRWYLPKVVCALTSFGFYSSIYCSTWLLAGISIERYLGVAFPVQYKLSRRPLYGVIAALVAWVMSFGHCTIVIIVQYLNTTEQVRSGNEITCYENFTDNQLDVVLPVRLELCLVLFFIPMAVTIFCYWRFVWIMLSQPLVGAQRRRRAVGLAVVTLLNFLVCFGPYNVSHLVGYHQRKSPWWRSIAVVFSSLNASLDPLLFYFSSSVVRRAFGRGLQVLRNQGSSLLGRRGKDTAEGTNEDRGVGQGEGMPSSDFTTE
Procedure: The activity of the compounds on FFA2 was evaluated in two different functional antagonist assays, both using propionate at EC80 as the agonist. The GTPγS assay reflects receptor activation by directly assessing G protein recruitment, whereas the cAMP assay, performed in whole cells, reflects a physiologically relevant downstream second messenger.
Functional activity of the compounds were tested in a [^35S]GTPγS incorporation assay using membranes of Flp-In T-Rex 293 cells induced to express human FFA2-eYFP. […] The reaction was initiated by addition of [^35S]GTPγS (100 nCi per reaction) containing 1 μM GDP and incubated at 30 °C for 60 min. The reaction was terminated by rapid vacuum filtration through GF/C glass fiber filter-bottom 96-well microplates (PerkinElmer Life Sciences, Beaconsfield, UK) using a UniFilter FilterMate Harvester (PerkinElmer). Unbound radioligands were removed from filters by three washes with ice-cold PBS. MicroScint-20 (PerkinElmer) was added to dried filters, and [^35S]GTPγS binding was quantified by liquid scintillation spectroscopy.

[4] = % recovered after 60 min, mouse liver microsomes
[5] = remaining, PBS7.4 at 37 °C, 10 days

Row | solubility at 24 h [1] | microsomal stability (Microsomal stability; [4]) | chemical stability [2, 5] | logD at 25 h [3] | GTPγS pIC50 (human FFA2-eYFP) | LLEGTPγS (human FFA2-eYFP) | in vitro clearance (Microsomal stability; mouse liver microsomes) | microsomal stability (Microsomal stability; supplementary CSV) | chemical stability ([2]; supplementary CSV) | IC50 (human FFA2-eYFP; inhibition of propionate at FFA2) | SMILES
1 | 166 µM (≈ 66.4 µg/mL) | 91% | 90% | 1.39 ± 0.01 | 6.68 ± 0.05 | 2.47 | – | – | – | – | O=C(O)C[C@H](Cc1ccc(C(F)(F)F)cc1)NC(=O)Cc1cccc(Cl)c1 [Compound 3, reference compound]
2 | 176 µM (≈ 73.8 µg/mL) | 93% | >95% | 0.84 ± 0.01 | 8.46 ± 0.05 | 5.98 | low in vitro clearance | 93% | >95% | 3 to 4 nM and 4 nM | COc1cccc(CC(=O)N[C@@H](Cc2ccc(C(F)(F)F)cc2)Cc2nnn[nH]2)c1 [Compound 16l, (S)-N-(1-(1H-Tetrazol-5-yl)-3-(4-(trifluoromethyl)phenyl)propan-2-yl)-2-(3-methoxyphenyl)acetamide]
3 | 183 µM (≈ 85.9 µg/mL) | 92% | >95% | 0.71 ± 0.06 | 8.21 ± 0.09 | 6.28 | low in vitro clearance | 92% | >95% | – | O=C(Cc1cncc(Br)c1)N[C@@H](Cc1ccc(C(F)(F)F)cc1)Cc1nnn[nH]1 [Compound 16w, (S)-3-(2-((1-(1H-Tetrazol-5-yl)-3-(4-(trifluoromethyl)phenyl)propan-2-yl)amino)-2-oxoethyl)-5-bromopyridin-1-ium 2,2,2-trifluoroacetate]
